Tested on: non-operable neck tumor of unknown origin and metastasis in the lungs
Experiment: Oral inorganic mercury (II) treatment of a pet English Setter: blood data and clinical follow-up
Format: in vivo, dog
Design: Anion Gap / MCV / MCH / MCHC / Neutrophils, absolute / Lymphocytes, absolute / Monocytes, absolute / Eosinophils, absolute: unit not given here
Protocol: A 10 years old female English Setter was diagnosed with a non-operable neck tumor of unknown origin and metastasis in the lungs.
The dog completed 130-day inorganic mercury (II) treatment that consisted of 58 days of the first treatment course followed by 20 days of an interval period, and the 52-day second treatment course. The formulation contained 1 mM mercury acetate in 20 mM sodium acetate buffer, pH 4.5, with 100 mM sucrose and 150 mM sodium chloride additives. It was introduced orally to the dog three times a day at 0.5 micromole Hg^2+/kg/day. At the start of the treatment, the dog was in poor health condition: was easily tired, had difficulty to swallow, heavy breathing due to lung metastasis. The tumor was easily palpated at the neck. […] These changes were correlated with reduction in ALP levels (Days 5, 22, 40, 65).
During the second treatment course the progression of the disease was slowed down, but not to the degree observed during the first treatment course. The treatment was stopped at Day 128, and the dog was euthanized 2-3 weeks later.

## CC(=O)[O-].CC(=O)[O-].[Hg+2] [inorganic mercury (II), mercury acetate]
Day 5
  ALT (SGPT): 84 U/L
  AST (SGOT): 22 U/L
  Albumin: 3.3 g/dL
  Albumin/Globulin Ratio: 1.1
  Alkaline Phosphatase (ALP): 204 U/L
  Amylase: 771 U/L
  Anion Gap: 26
  BUN: 39 mg/dL
  BUN/Creatinine Ratio: 43.3
  CPK: 84 U/L
  Calcium: 11.7 mg/dL
  Chloride: 113 mE/L
  Cholesterol: 269 mg/dL
  Creatinine: 0.9 mg/dL
  Direct Billirubin: 0 mg/dL
  Eosinophils, (%): 4%
  Eosinophils, absolute: 576
  GGT: 2 U/L
  Globulin: 2.9 g/dL
  Glucose: 116 mg/dL
  Hematocrit: 41.8%
  Hemoglobin: 14.5 g/dL
  Indirect Billirubin: 0.2 mg/dL
  Lipase: 799 U/L
  Lymphocytes, (%): 48%
  Lymphocytes, absolute: 6912
  MCH: 24.5
  MCHC: 34.7
  MCV: 71
  Monocytes, (%): 6%
  Monocytes, absolute: 864
  Na/K ratio: 32
  Neutrophils, (%): 41%
  Neutrophils, absolute: 5904
  Phosphorus: 5.2 mg/dL
  Platelet count: 534 10^3/microl
  Potassium: 4.8 mE/L
  RBC: 5.9 10^6/microl
  Sodium: 152 mE/L
  T4: 1.4 µg/dL
  Total Billirubin: 0.2 mg/dL
  Total Protein: 6.2 g/dL
  WBC: 14.4 10^3/microl
  tCO2: 18 mEq/L
Day 22
  ALT (SGPT): 84 U/L
  AST (SGOT): 13 U/L
  Albumin: 3.3 g/dL
  Albumin/Globulin Ratio: 1.2
  Alkaline Phosphatase (ALP): 142 U/L
  Amylase: 738 U/L
  Anion Gap: 24
  BUN: 17 mg/dL
  BUN/Creatinine Ratio: 21.3
  CPK: 96 U/L
  Calcium: 10.8 mg/dL
  Chloride: 113 mE/L
  Cholesterol: 230 mg/dL
  Creatinine: 0.8 mg/dL
  Direct Billirubin: 0 mg/dL
  Eosinophils, (%): 2%
  Eosinophils, absolute: 332
  GGT: 3 U/L
  Globulin: 2.8 g/dL
  Glucose: 102 mg/dL
  Hematocrit: 44.7%
  Hemoglobin: 15.2 g/dL
  Indirect Billirubin: 0.1 mg/dL
  Lipase: 718 U/L
  Lymphocytes, (%): 64%
  Lymphocytes, absolute: 10624
  MCH: 24.3
  MCHC: 34.1
  MCV: 71
  Na/K ratio: 26
  Neutrophils, (%): 34%
  Neutrophils, absolute: 5644
  Phosphorus: 3.6 mg/dL
  Platelet count: 483 10^3/microl
  Potassium: 5.7 mE/L
  RBC: 6.26 10^6/microl
  Sodium: 150 mE/L
  T4: 1.8 µg/dL
  Total Billirubin: 0.1 mg/dL
  Total Protein: 6.1 g/dL
  WBC: 16.6 10^3/microl
  tCO2: 19 mEq/L
Day 40
  ALT (SGPT): 87 U/L
  AST (SGOT): 20 U/L
  Albumin: 3.4 g/dL
  Albumin/Globulin Ratio: 1.1
  Alkaline Phosphatase (ALP): 111 U/L
  Anion Gap: 28
  BUN: 22 mg/dL
  BUN/Creatinine Ratio: 24.4
  CPK: 124 U/L
  Calcium: 11.0 mg/dL
  Chloride: 110 mE/L
  Cholesterol: 222 mg/dL
  Creatinine: 0.9 mg/dL
  Direct Billirubin: 0.1 mg/dL
  Eosinophils, (%): 1%
  Eosinophils, absolute: 160
  GGT: 2 U/L
  Globulin: 3.0 g/dL
  Glucose: 99 mg/dL
  Hematocrit: 46.1%
  Hemoglobin: 14.8 g/dL
  Indirect Billirubin: 0 mg/dL
  Lymphocytes, (%): 64%
  Lymphocytes, absolute: 10240
  MCH: 23.7
  MCHC: 32.2
  MCV: 74
  Monocytes, (%): 6%
  Monocytes, absolute: 960
  Na/K ratio: 26
  Neutrophils, (%): 29%
  Neutrophils, absolute: 4640
  Phosphorus: 4.6 mg/dL
  Platelet count: 511 10^3/microl
  Potassium: 5.7 mE/L
  RBC: 6.26 10^6/microl
  Sodium: 151 mE/L
  Total Billirubin: 0.1 mg/dL
  Total Protein: 6.4 g/dL
  WBC: 16 10^3/microl
  tCO2: 19 mEq/L
Day 65
  ALT (SGPT): 111 U/L
  AST (SGOT): 28 U/L
  Albumin: 3.5 g/dL
  Albumin/Globulin Ratio: 1.5
  Alkaline Phosphatase (ALP): 78 U/L
  Amylase: 431 U/L
  Anion Gap: 27
  BUN: 30 mg/dL
  BUN/Creatinine Ratio: 30
  CPK: 120 U/L
  Calcium: 10.5 mg/dL
  Chloride: 109 mE/L
  Cholesterol: 169 mg/dL
  Creatinine: 1.0 mg/dL
  Direct Billirubin: 0.1 mg/dL
  Eosinophils, (%): 1%
  Eosinophils, absolute: 211
  GGT: 7 U/L
  Globulin: 2.4 g/dL
  Glucose: 94 mg/dL
  Hematocrit: 44.6%
  Hemoglobin: 14.3 g/dL
  Indirect Billirubin: 0 mg/dL
  Lipase: 449 U/L
  Lymphocytes, (%): 61%
  Lymphocytes, absolute: 12871
  MCH: 23.5
  MCHC: 32.1
  MCV: 73
  Na/K ratio: 29
  Neutrophils, (%): 38%
  Neutrophils, absolute: 8018
  Phosphorus: 4.4 mg/dL
  Platelet count: 404 10^3/microl
  Potassium: 5.2 mE/L
  RBC: 6.09 10^6/microl
  Sodium: 150 mE/L
  T4: 1.6 µg/dL
  Total Billirubin: 0.1 mg/dL
  Total Protein: 5.9 g/dL
  WBC: 21.1 10^3/microl
  tCO2: 19 mEq/L
Day 103
  ALT (SGPT): 95 U/L
  AST (SGOT): 25 U/L
  Albumin: 3.2 g/dL
  Albumin/Globulin Ratio: 1.3
  Alkaline Phosphatase (ALP): 58 U/L
  Amylase: 745 U/L
  Anion Gap: 27
  BUN: 13 mg/dL
  BUN/Creatinine Ratio: 16.3
  CPK: 103 U/L
  Calcium: 9.6 mg/dL
  Chloride: 107 mE/L
  Cholesterol: 146 mg/dL
  Creatinine: 0.8 mg/dL
  Direct Billirubin: 0.1 mg/dL
  Eosinophils, (%): 1%
  Eosinophils, absolute: 165
  GGT: 6 U/L
  Globulin: 2.4 g/dL
  Glucose: 107 mg/dL
  Hematocrit: 40.7%
  Hemoglobin: 13.4 g/dL
  Indirect Billirubin: 0 mg/dL
  Lipase: 630 U/L
  Lymphocytes, (%): 71%
  Lymphocytes, absolute: 11715
  MCH: 23.4
  MCHC: 32.9
  MCV: 71
  Monocytes, (%): 7%
  Monocytes, absolute: 1155
  Na/K ratio: 28
  Neutrophils, (%): 20%
  Neutrophils, absolute: 3300
  Phosphorus: 3.7 mg/dL
  Platelet count: 409 10^3/microl
  Potassium: 5.2 mE/L
  RBC: 5.72 10^6/microl
  Sodium: 148 mE/L
  T4: 1.4 µg/dL
  Total Billirubin: 0.1 mg/dL
  Total Protein: 5.6 g/dL
  WBC: 16.5 10^3/microl
  tCO2: 19 mEq/L
Day 128
  ALT (SGPT): 89 U/L
  AST (SGOT): 23 U/L
  Albumin: 3.0 g/dL
  Albumin/Globulin Ratio: 1.2
  Alkaline Phosphatase (ALP): 45 U/L
  Amylase: 633 U/L
  Anion Gap: 22
  BUN: 24 mg/dL
  BUN/Creatinine Ratio: 30
  CPK: 53 U/L
  Calcium: 9.9 mg/dL
  Chloride: 116 mE/L
  Cholesterol: 133 mg/dL
  Creatinine: 0.8 mg/dL
  Direct Billirubin: 0.1 mg/dL
  Eosinophils, (%): 2%
  Eosinophils, absolute: 330
  GGT: 13 U/L
  Globulin: 2.6 g/dL
  Glucose: 116 mg/dL
  Hematocrit: 38.1%
  Hemoglobin: 12.3 g/dL
  Indirect Billirubin: 0 mg/dL
  Lipase: 415 U/L
  Lymphocytes, (%): 46%
  Lymphocytes, absolute: 7774
  MCH: 22.6
  MCHC: 32.2
  MCV: 70
  Monocytes, (%): 5%
  Monocytes, absolute: 845
  Na/K ratio: 31
  Neutrophils, (%): 47%
  Neutrophils, absolute: 7943
  Phosphorus: 3.1 mg/dL
  Platelet count: 508 10^3/microl
  Potassium: 4.8 mE/L
  RBC: 5.44 10^6/microl
  Sodium: 151 mE/L
  T4: 1.1 µg/dL
  Total Billirubin: 0.1 mg/dL
  Total Protein: 5.6 g/dL
  WBC: 16.9 10^3/microl
  tCO2: 19 mEq/L
During the first treatment course
  general condition: steady improvement
During the second treatment course, not to the degree of the first course
  progression of the disease: slowed down

— patent US20070154567A1, “Use of mercury to treat cancer” (priority 2006, published 2007)
